Data as given in patent EP4603105A1, “PHARMACEUTICAL COMPOSITION CONTAINING CYCLIC COMPOUND HAVING SELECTIVE KRAS INHIBITORY EFFECT AGAINST HRAS AND NRAS” (CHUGAI SEIYAKU KABUSHIKI KAISHA, priority 2022, dated 2024).
Where a SMILES comes first, the peptide text is derived from it. Bridges are numbered along the chain shown (N, C = ends). [ ]: non-standard residue; d: D form. The star is where a group is joined. hPhe(3,5-F2-4-CF3) = N[C@@H](CCc1cc(F)c(C(F)(F)F)c(F)c1)C(=O)O; hPhe(3-Cl-4-CF3) = N[C@@H](CCc1ccc(C(F)(F)F)c(Cl)c1)C(=O)O; NPrPhe(4-CF3) = CCCN[C@@H](Cc1ccc(C(F)(F)F)cc1)C(=O)O; NMeGly(cPent) = CN[C@H](C(=O)O)C1CCCC1; Nva(3-Et) = CCC(CC)[C@H](N)C(=O)O; NMeD = CN[C@@H](CC(=O)O)C(=O)O; NMeL = CN[C@@H](CC(C)C)C(=O)O; Morpholide = C1CN(*)CCO1; Ac5c = NC1(C(=O)O)CCCC1; Aze = O=C(O)[C@@H]1CCN1; Abu = CC[C@H](N)C(=O)O; Sar = CNCC(=O)O

Key:
HRAS wild-type protein = HRAS wild-type protein (Homo sapiens, UniProt P01112); test: Binding to HRAS by surface plasmon resonance (SPR), KD and KD ratio to KRAS
Procedure, shortened: (§1)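 Recombinant RAS proteins bearing a biotinylated Avi tag and loaded with GDP served as the captured ligand, recaptured fresh every cycle. Binding responses were referenced to an uncoated surface and a buffer-only blank cycle. Dissociation constants were obtained by 1:1 model fitting at 30°C.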

[1] = tested on: human lung cancer strain NCI-H441; type: cell-based
Procedure, shortened: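 Signal came from […] measured per well once the reagent was added. Beforehand, cells were cultured at 37°C and 5% carbon dioxide on a compound series serially diluted in dimethyl sulfoxide.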

[2] = molecular target: GDP-bound KRAS wild-type protein (Homo sapiens, UniProt P01116); test: Binding to KRAS by surface plasmon resonance (SPR), dissociation constant KD
Procedure, shortened: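 GDP-loaded biotinylated Avi-tag RAS proteins (E. coli-expressed) captured on a Biotin CAPture chip at ~100–300 RU; single-cycle kinetics at 30°C, 100 µL/min, 75 s injections of rising compound concentrations. HBS pH 7.4 running buffer with 1 mM DTT, 10 mM MgCl2, 10 µM GDP, 4% DMSO. KD from 1:1 binding fit.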

[3] = molecular target: GDP-bound NRAS wild-type protein (Homo sapiens, UniProt P01111); test: Binding to NRAS by surface plasmon resonance (SPR), KD and KD ratio to KRAS
Procedure, shortened: as §1

[4] = ratio of KD for HRAS wild-type protein to KD for KRAS
[5] = ratio of KD for GDP-bound NRAS wild-type protein to KD for KRAS
[6] = ratio of the KD value with respect to HRAS wild-type protein to the KD value with respect to KRAS
[7] = Single Cycle Kinetics, 1:1 binding model
[8] = ratio of the KD value with respect to GDP-bound NRAS wild-type protein to the KD value with respect to KRAS
[9] = ratio of KD value for HRAS wild-type protein to KD value for KRAS (SPR)
[10] = ratio of KD value for GDP-bound NRAS wild-type protein to KD value for KRAS (SPR)

Sequence of GDP-bound KRAS wild-type protein (P01116 1-188 isoform P01116-2): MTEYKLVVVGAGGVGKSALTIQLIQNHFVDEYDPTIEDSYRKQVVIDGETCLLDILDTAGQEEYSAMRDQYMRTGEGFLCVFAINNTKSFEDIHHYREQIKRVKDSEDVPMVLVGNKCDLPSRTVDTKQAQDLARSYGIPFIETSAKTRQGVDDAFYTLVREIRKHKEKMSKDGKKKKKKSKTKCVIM
Sequence of HRAS wild-type protein (P01112 whole entry): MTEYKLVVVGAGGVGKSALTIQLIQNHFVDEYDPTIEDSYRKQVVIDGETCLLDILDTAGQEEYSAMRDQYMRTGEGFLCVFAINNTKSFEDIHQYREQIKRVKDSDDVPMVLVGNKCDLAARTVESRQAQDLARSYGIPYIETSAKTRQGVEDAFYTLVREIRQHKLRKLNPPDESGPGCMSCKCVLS
Sequence of GDP-bound NRAS wild-type protein (P01111 whole entry): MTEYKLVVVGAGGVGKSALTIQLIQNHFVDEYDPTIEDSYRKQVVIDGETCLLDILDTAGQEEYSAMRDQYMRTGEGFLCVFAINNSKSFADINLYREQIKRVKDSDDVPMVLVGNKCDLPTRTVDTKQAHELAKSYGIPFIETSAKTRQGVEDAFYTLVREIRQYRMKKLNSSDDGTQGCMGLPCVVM

Compound	IC50 [1]	Kd ([2]; 1:1 binding model)	Kd [2, 7]	Kd ([2]; Single Cycle Kinetics)	HRAS /KRAS (HRAS wild-type protein; [4])	NRAS /KRAS [3, 5]	HRAS /KRAS (HRAS wild-type protein; [6])	NRAS /KRAS [3, 8]	HRAS /KRAS (HRAS wild-type protein; [9])	NRAS /KRAS [3, 10]
CCO[C@@H]1C[C@H]2C(=O)NC3(CCC3)C(=O)N(C)[C@@H](C3CCCC3)C(=O)N(C)[C@H](C(=O)N(C)CC)CC(=O)N(C)[C@@H](CC(C)C)C(=O)N[C@@H]([C@@H](C)CC)C(=O)N(C)CC(=O)N(C)[C@H]3C/C=C\CCN(C3=O)[C@@H](Cc3ccc(C(F)(F)F)cc3)C(=O)N(C)CC(=O)N[C@@H](CCc3ccc(Cl)c(Cl)c3)C(=O)N2C1 [PP2845]	22.7 nM	0.3 nM			A (a compound having 10 or more and less than 20 is denoted as A)	AA (a compound having 20 or more is denoted as AA)				
CCO[C@@H]1C[C@H]2C(=O)NC3(CC(C)(C)C3)C(=O)N(C)[C@@H](C(CC)CC)C(=O)N(C)[C@H](C(=O)N(C)C)CC(=O)N(C)[C@@H](CC(C)C)C(=O)N[C@@H]([C@@H](C)CC)C(=O)N(C)CC(=O)N(C)[C@H]3C/C=C\CCN(C3=O)[C@@H](Cc3ccc(C)cc3)C(=O)N(C)CC(=O)N[C@@H](CCc3ccc(C(F)(F)F)c(Cl)c3)C(=O)N2C1 [PP2148]	41.5 nM		0.34 nM				A (a compound having 10 or more and less than 20 is denoted as A)	A (a compound having 10 or more and less than 20 is denoted as A)		
CCO[C@@H]1C[C@H]2C(=O)NC3(CC(C)(C)C3)C(=O)N(C)[C@@H](C3CCCC3)C(=O)N(C)[C@H](C(=O)N(C)CC)CC(=O)N(C)[C@@H](CC(C)C)C(=O)N[C@@H]([C@@H](C)CC)C(=O)N(C)CC(=O)N(C)[C@H]3C/C=C\CCN(C3=O)[C@@H](Cc3ccc(C(F)F)cc3)C(=O)N(C)CC(=O)N[C@@H](CCc3ccc(C4CC4)c(OC)c3)C(=O)N2C1 [PP3153]	28.7 nM	1.4 nM			A (a compound having 10 or more and less than 20 is denoted as A)	A (a compound having 10 or more and less than 20 is denoted as A)				
CCC[C@H]1C(=O)N[C@H]([C@@H](C)CC)C(=O)N(C)CC(=O)N(C)[C@H]2C/C=C\CCN(C2=O)[C@@H](Cc2ccc(C)cc2)C(=O)N(C)CC(=O)N[C@@H](CCc2cc(F)c(C(F)F)c(F)c2)C(=O)N2C[C@H](OCC)C[C@H]2C(=O)NC2(CC(C)(C)C2)C(=O)N(C)[C@@H](C(CC)CC)C(=O)N(C)[C@H](C(=O)N(C)C)CC(=O)N1C (stereo in doubt) [PP2783]	33.9 nM	1.7 nM			A (a compound having 10 or more and less than 20 is denoted as A)	A (a compound having 10 or more and less than 20 is denoted as A)				
CCO[C@@H]1C[C@H]2C(=O)NC3(CC(C)(C)C3)C(=O)N(C)[C@@H](C3CCCC3)C(=O)N(C)[C@H](C(=O)N(C)C)CC(=O)N(C)[C@@H]([C@H](C)OC)C(=O)N[C@@H]([C@@H](C)CC)C(=O)N(C)CC(=O)N(C)[C@H]3C/C=C\CCN(C3=O)[C@@H](Cc3ccc(C)cc3)C(=O)N(C)CC(=O)N[C@@H](CCc3cc(F)c(C(F)(F)F)c(F)c3)C(=O)N2C1 [PP3187]	10.4 nM	0.082 nM			A (a compound having 10 or more and less than 20 is denoted as A)	A (a compound having 10 or more and less than 20 is denoted as A)				
CCOC[C@H]1C(=O)N[C@@H]([C@@H](C)CC)C(=O)N(C2CC2)CC(=O)N(C)[C@H]2C/C=C\CCN(C2=O)[C@@H](Cc2ccc(C(F)(F)F)cc2)C(=O)N(C)CC(=O)N[C@@H](CCc2ccc(C(F)(F)F)c(OC)c2)C(=O)N2C[C@H](OCC)C[C@H]2C(=O)N(C)C2(CCC2)C(=O)N(C)[C@@H](C(CC)CC)C(=O)N(C)[C@H](C(=O)N(C)C)CC(=O)N1C [PP2315]	9 nM		0.33 nM				A (a compound having 10 or more and less than 20 is denoted as A)	A (a compound having 10 or more and less than 20 is denoted as A)		
CCCOC[C@H]1C(=O)N[C@@H]([C@@H](C)CC)C(=O)N(C2CC2)CC(=O)N(C)[C@H]2C/C=C\CCN(C2=O)[C@@H](Cc2ccc(C(F)(F)F)cc2)C(=O)N(C)CC(=O)N[C@@H](CCc2ccc(C(F)(F)F)c(OC)c2)C(=O)N2C[C@H](OCC)C[C@H]2C(=O)N(C)C2(CCC2)C(=O)N(C)[C@@H](C2CCCC2)C(=O)N(C)[C@H](C(=O)N(C)C)CC(=O)N1C [PP2318]	3.3 nM		0.12 nM				A (a compound having 10 or more and less than 20 is denoted as A)	A (a compound having 10 or more and less than 20 is denoted as A)		

The next lines start with results.

IC50 [1]	Kd ([2]; 1:1 binding model)	Kd [2, 7]	Kd ([2]; Single Cycle Kinetics)	Compound	HRAS /KRAS (HRAS wild-type protein; [4])	NRAS /KRAS [3, 5]	HRAS /KRAS (HRAS wild-type protein; [6])	NRAS /KRAS [3, 8]	HRAS /KRAS (HRAS wild-type protein; [9])	NRAS /KRAS [3, 10]
349 nM	4 nM			CCCN1C(=O)CN(C)C(=O)[C@@H]2CCN2C(=O)[C@H](CC)NC(=O)[C@H](CC(C)C)N(C)C(=O)C[C@@H](C(=O)N2CCOCC2)N(C)C(=O)[C@H](C2CCCC2)N(C)C(=O)C2(CCCC2)NC(=O)[C@@H]2CCCN2C(=O)[C@H](CCc2ccc(C(F)(F)F)c(Cl)c2)NC(=O)CN(C)C(=O)[C@@H]1Cc1ccc(C(F)(F)F)cc1 [PP0303] ([NMeL][Abu][Aze][Sar][NPrPhe(4-CF3)][Sar][hPhe(3-Cl-4-CF3)]P[Ac5c][NMeGly(cPent)][NMeD]-Morpholide; lactam N-11)	B (a compound having 3 or more and less than 10 is denoted as B)	B (a compound having 3 or more and less than 10 is denoted as B)				
324 nM			3 nM	CCCN1C(=O)CN(C)C(=O)[C@@H]2CCN2C(=O)[C@H](C(CC)CC)NC(=O)[C@H](CC(C)C)N(C)C(=O)C[C@@H](C(=O)N2CCOCC2)N(C)C(=O)[C@H](C2CCCC2)N(C)C(=O)C2(CCCC2)NC(=O)[C@@H]2CCCN2C(=O)[C@H](CCc2cc(F)c(C(F)(F)F)c(F)c2)NC(=O)CN(C)C(=O)[C@@H]1Cc1ccc(C(F)(F)F)cc1 [PP0785] ([NMeL][Nva(3-Et)][Aze][Sar][NPrPhe(4-CF3)][Sar][hPhe(3,5-F2-4-CF3)]P[Ac5c][NMeGly(cPent)][NMeD]-Morpholide; lactam N-11)	B (a compound having 3 or more and less than 10 is denoted as B)	B (a compound having 3 or more and less than 10 is denoted as B)				
75 nM			0.21 nM	CCO[C@@H]1C[C@H]2C(=O)NC3(CCC3)C(=O)N(C)[C@@H](C3CCCC3)C(=O)N(C)[C@H](C(=O)N(C)C)CC(=O)N(C)[C@@H](CC)C(=O)N[C@@H]([C@@H](C)CC)C(=O)N3CCC[C@H]3C(=O)N(C)[C@H]3C/C=C\CCN(C3=O)[C@@H](Cc3ccc(C(F)(F)F)cc3)C(=O)N(C)CC(=O)N[C@@H](CCc3cc(F)c(C(F)(F)F)c(F)c3)C(=O)N2C1 [PP1056]	A (a compound having 10 or more and less than 20 is denoted as A)	A (a compound having 10 or more and less than 20 is denoted as A)				
35.3 nM			0.46 nM	CCO[C@@H]1C[C@H]2C(=O)NC3(CCC3)C(=O)N(C)[C@@H](C3CCCC3)C(=O)N(C)[C@H](C(=O)N3CCOCC3)CC(=O)N(C)[C@@H](COC3CC3)C(=O)N[C@@H]([C@@H](C)CC)C(=O)N(C)CC(=O)N(C)[C@H]3CCCCCN(C3=O)[C@@H](Cc3ccc(C(F)(F)F)cc3)C(=O)N(C)CC(=O)N[C@@H](CCc3cc(F)c(C(F)(F)F)c(F)c3)C(=O)N2C1 [PP0852]	B (a compound having 3 or more and less than 10 is denoted as B)	B (a compound having 3 or more and less than 10 is denoted as B)				
98.7 nM		0.55 nM		CCO[C@@H]1C[C@H]2C(=O)NC3(CCC3)C(=O)N(C)[C@@H](C3CCCC3)C(=O)N(C)[C@H](C(=O)N3CCOCC3)CC(=O)N(C)[C@@H](CC3CC3)C(=O)N[C@@H]([C@@H](C)CC)C(=O)N(C)CC(=O)N(C)[C@H]3C/C=C\CCN(C3=O)[C@@H](Cc3ccc(F)cc3C)C(=O)N(C)CC(=O)N[C@@H](CCc3cc(F)c(C(F)(F)F)c(F)c3)C(=O)N2C1 [PP1495]					B (a compound having 3 or more and less than 10 is denoted as B)	A (a compound having 10 or more and less than 20 is denoted as A)
3.7 nM		0.08 nM		CCO[C@@H]1C[C@H]2C(=O)NC3(CCC3)C(=O)N(C)[C@@H](C3CCCC3)C(=O)N(C)[C@H](C(=O)N(C)CC)CC(=O)N(C)[C@@H](CC(F)(F)F)C(=O)N[C@@H]([C@@H](C)CC)C(=O)N(C)CC(=O)N(C)[C@H]3C/C=C\CCN(C3=O)[C@@H](Cc3ccc(C(F)(F)F)cc3)C(=O)N(C)CC(=O)N[C@@H](CCc3cc(F)c(C(F)(F)F)c(F)c3)C(=O)N2C1 [PP1701]					A (a compound having 10 or more and less than 20 is denoted as A)	A (a compound having 10 or more and less than 20 is denoted as A)
6.5 nM		0.095 nM		CC[C@H](C)[C@@H]1NC(=O)[C@H](CC(C)C)N(C)C(=O)C[C@@H](C(=O)N2CCOCC2)N(C)C(=O)[C@H](C2CCCC2)N(C)C(=O)C2(CCCC2)NC(=O)[C@@H]2CCCN2C(=O)[C@H](CCc2ccc(C(F)(F)F)c(Cl)c2)NC(=O)CN(C)C(=O)[C@H](Cc2ccccc2)N2CCCC[C@@H](C2=O)N(C)C(=O)CN(C)C1=O [PP0529]			B (a compound having 3 or more and less than 10 is denoted as B)	C (A compound having a KD ratio of 0.1 or more and less than 3 is denoted as C)		
